Measurements from US12115161B2, “Prophylactic and/or therapeutic agent for inflammatory diseases which contains pyrrolopyrimidine compound as active ingredient” (KEIO UNIVERSITY, priority 2018, dated 2024).

What was measured:
[1] = system: human peripheral blood monocytes; assay: IL-6 production inhibitory effect of BAFF from human peripheral blood monocytes (Example 3); assay type: cell-based
Procedure: Monocytes were isolated from normal healthy human peripheral blood using CD14-microbeads. In the presence of 2 μg/mL recombinant human BAFF (same as Example 2) and Compound A (2 μM and 10 μM) (entire culture scale of 24-well culture plates at 2 mL/well), 5×10^5 of the isolated monocytes were cultured using a 10% FBS/RPMI 1640 culture medium in a 5% CO2 environment at 37° C. for four days. Four days later, the supernatant was removed to determine the IL-6 content in the culture supernatant by IL-6 specific ELISA. For comparison, experiments using BIK-13 instead of Compound A were also performed.

[2] = system: human monocytic cell line THP-1; assay: IL-6 production inhibitory effect of BAFF in IFNγ-precultured THP-1 cells (Example 2); assay type: cell-based
Procedure: In 24-well plates (manufactured by Corning Inc.) in a RPMI-1640 culture medium (produced by ATCC) containing 10% fetal bovine serum (produced by JRH Biosciences), 5×10^5 cells of human monocytic leukemia cell line THP-1 (obtained from a bioresource bank, Japanese Collection of Research Bioresource) were seeded per well. IFNγ (interferon γ, produced by BD Pharmingen) was added to a final concentration of 200 ng/mL and cultured in a 5% CO2 environment at 37° C. After four days of culture, the culture broth in each well was removed and the cells were washed twice with the culture medium, followed by addition of the culture medium containing a final concentration of 2 μg/mL of recombinant human soluble BAFF (produced by Chemicon), and respective test compounds were added to a final concentration of 20 μM or 2 μM to continue the culture in the same conditions. After three days of culture, the culture supernatant was collected to determine the IL-6 content in the supernatant by ELISA. For ELISA, mouse anti-human IL-6 antibody (produced by BD Pharmingen), biotin-labeled anti-human IL-6 antibody (produced by BD Pharmingen), and HRP-labeled streptavidin (produced by BD Pharmingen) were used. The test compound groups were used by purchasing from Asinex. In the test system, Compound 27 (BIK-13) in PTL 1 was used as a positive control (compound with inhibitory action on IL-6 production by monocytic cells). BIK-13 was the same as the compound of ADM 12880656 by Asinex Japan Inc.
In the presence of 200 ng/mL recombinant human IFNγ (same as Example 1) (entire culture scale of 24-well culture plates at 2 mL/well), 5×10^5 cells of human monocytic cell line THP-1 (same as Example 1) were cultured using a 10% FBS/RPMI 1640 culture medium in a 5% CO2 environment at 37° C. for four days (96 hours). Four days later, an operation of removing the supernatant, adding a new medium, leaving it still in an incubator, and removing the supernatant was repeated twice. After removing the supernatant, recombinant human BAFF (2 μg/mL) was dissolved together with Compound A (ADM 12880492, Asinex Japan Inc.) or Compound B (ADM 12880696, Asinex Japan Inc.) in a medium and added to the culture wells to be cultured for three days. Three days later, the culture supernatant was collected to determine the IL-6 content in the culture supernatant by IL-6 specific ELISA. As a control, instead of Compound A or Compound B, BIK-13 was used.

NZB/WF1 mice = assay: Urine protein in NZB/WF1 mice (Example 8); assay type: in vivo
Procedure: Present Example was performed simultaneously with Example 7 using NZB/WF1 mice. Except for the following exceptions, present Example was performed by the same materials and method as Example 7 above.
The urine was collected over time (0 w, 4 w, 7 w, 12 w, 16 w, and 18 w) to evaluate the protein content […] in the urine using urine protein test strips. It is known that SLE patients are prone to develop lupus nephritis and a higher concentration of protein is contained in the urine of incident patients than the urine of normal healthy individuals.
The level of the protein content in the mouse urine was numerically expressed using Albustix (Ames urine protein test strips, produced by Siemens Healthcare K.K.) as urine protein test strips based on the following criteria. • negative: 0 • ±: 0.5 • +: 1 • 2+: 2 • 3+: 3

MRL/lpr mice = assay: Tissue lesion (lymphocytic infiltration, HE staining) in MRL/lpr mice (Example 9); assay type: in vivo; conditions: 0.04, 0.2, 1 mg/kg for 16 weeks
Procedure: Present Example was performed simultaneously with Example 6 using MRL/lpr mice. Except for the following exceptions, present Example was performed by the same materials and method as Example 6 above.
After administration in the 16th week, 25-week-old mice were dissected and tissues (lacrimal glands, submandibular glands, and kidneys) were removed. After the removed tissues were rapidly frozen and embedded using O.C.T. compound (Sakura Finetek Japan Co., Ltd.), the frozen tissues were thin sectioned with a cryostat (LEICA CM 1920) and applied on glass slides. After the sections on the glass slides were dried, the tissues were stained by hematoxylin-eosin staining to be observed with a microscope. The hematoxylin-eosin staining was performed in the following procedure: • 1) fixation and washing with an ethanol-formalin-acetic acid fixative; • 2) adding New Hematoxylin solution Type G (Muto Pure Chemicals Co., Ltd.), followed by washing; • 3) adding New Eosin solution Type A (Muto Pure Chemicals Co., Ltd.); • 4) adding 80% ethanol; • 5) adding xylene; and • 6) mounted with Marinol (Muto Pure Chemicals Co., Ltd.) for observation.

Structure (SMILES): Cc1c(C)n(Cc2ccccc2)c2ncnc(OC3CCN(CC(=O)NCC4CC4)CC3)c12 [Compound A, 2-[4-{(7-benzyl-5,6-dimethyl-7H-pyrrolo[2,3-d]pyrimidin-4-yl)oxy}piperidin-1-yl]-N(cyclopropylmethyl)acetamide]
- IL-6 production inhibitory effect compared with the control ([1]; 2 μM and 10 μM with 2 μg/mL human BAFF, 4 days): significant (p<0.001) IL-6 production inhibitory effects
- relative amount of IL-6 production ([1]; 2 μM, control = 100%): 66.4±0.283%
- IL-6 production inhibitory effect, times stronger than BIK-13 ([1]; monocytes of normal healthy individuals): at least 5 times
- IL-6 production inhibitory effect compared with the control ([2]; 0.04 μM, 0.2 μM and 1 μM together with 2 μg/mL human BAFF, 3 days, ELISA): significant (p<0.001) IL-6 production inhibitory effects
- relative amount of IL-6 production ([2]; 0.04 μM, control (BAFF only) = 100%): 25±1.42%
- IL-6 production inhibitory effect, times stronger than BIK-13 ([2]; THP-1 system of Example 2): at least 750 times
- protein content in the urine compared with saline (NZB/WF1 mice; 0.2 and 1 mg/kg, 12 w or later, urine protein test strips): tendency of decrease
- inhibitory effect on the protein content in the urine compared with saline (NZB/WF1 mice; 12th week (1 mg/kg) and 18th week (0.2 mg/kg and 1 mg/kg)): significant (respectively, p<0.05) inhibitory effects
- lymphocytic infiltration areas in kidney tissues compared with saline (MRL/lpr mice): reduced
- lymphocytic infiltration areas in lacrimal gland tissues compared with saline (MRL/lpr mice): clearly reduced
- lymphocytic infiltration areas in submandibular gland tissues compared with saline (MRL/lpr mice): reduced
